As a reminder, the inhibition is the drop in the measured response relative to a control, in per cent.

In the test the target is T1, PRKG1 (Homo sapiens, UniProt Q13976).
T1 construct: purchased Thermo Fisher Scientific (Life Technologies) SelectScreen
Description: SelectScreen Z'LYTE. In kind it is biochemical. In outline:
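NU5455 was profiled across the SelectScreen Broad panel of kinase activity and binding assays. Z'LYTE reactions such as CSF1R ran at apparent Km ATP, while the Adapta CAMK1 assay used ATP listed as 10. Values are given as percent.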

T1 sequence (Q13976 whole entry): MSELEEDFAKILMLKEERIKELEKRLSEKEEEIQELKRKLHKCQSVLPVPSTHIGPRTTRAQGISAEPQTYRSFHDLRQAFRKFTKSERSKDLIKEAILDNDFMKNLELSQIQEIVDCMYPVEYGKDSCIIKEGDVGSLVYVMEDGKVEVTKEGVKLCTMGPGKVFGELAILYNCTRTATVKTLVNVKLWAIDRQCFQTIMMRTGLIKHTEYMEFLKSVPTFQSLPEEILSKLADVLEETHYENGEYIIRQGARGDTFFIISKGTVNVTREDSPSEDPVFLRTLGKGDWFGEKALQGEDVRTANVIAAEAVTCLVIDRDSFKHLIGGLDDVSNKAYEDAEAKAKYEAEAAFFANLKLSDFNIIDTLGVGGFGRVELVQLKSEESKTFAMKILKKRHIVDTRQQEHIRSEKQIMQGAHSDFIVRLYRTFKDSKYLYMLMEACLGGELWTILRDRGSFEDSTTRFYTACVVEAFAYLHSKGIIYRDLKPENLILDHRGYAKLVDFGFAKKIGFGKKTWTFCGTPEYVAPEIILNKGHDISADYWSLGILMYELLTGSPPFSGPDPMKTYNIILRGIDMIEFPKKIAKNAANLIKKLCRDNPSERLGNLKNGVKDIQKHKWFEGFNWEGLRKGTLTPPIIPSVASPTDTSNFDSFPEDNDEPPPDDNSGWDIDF

For the molecule `CN(C(=O)CN1CCOCC1)c1ccc2sc3c(-c4cccc5c(=O)cc(N6CC7CCC(C6)O7)oc45)cccc3c2c1` [NU5455], the inhibition at 1 µM was -2.7%.

The values are drawn from paper PMC6934184, “Selective DNA-PKcs inhibition extends the therapeutic index of localized radiotherapy and chemotherapy” (The Journal of Clinical Investigation, 2019).
